Laboratory results from ChEMBL document CHEMBL1201862, “PubChem BioAssay data set” (2004).
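Results reflect a 48-hour exposure of cells in 96-well plates to compound at five concentrations. GI50 = concentration required for 50% inhibition of growth.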 The source made the active and inactive calls. No stated cut-off is given here; in the data, active = GI50 up to about 1.1 µM and inactive = higher.

Experiments:
Experiment in all cases: growth of human tumour cells (NCI), 48 h
COLO 205 = tested on: COLO 205
DMS-114 = tested on: DMS-114
HOP-62 = tested on: HOP-62
HT-29 = tested on: HT-29
NCI-H226 = tested on: NCI-H226
NCI-H522 = tested on: NCI-H522
OVCAR-5 = tested on: OVCAR-5
OVCAR-8 = tested on: OVCAR-8
SF-295 = tested on: SF-295
SK-MEL-28 = tested on: SK-MEL-28
SK-MEL-2 = tested on: SK-MEL-2
SK-OV-3 = tested on: SK-OV-3
SNB-75 = tested on: SNB-75
TK-10 = tested on: TK-10
U-251 = tested on: U-251
IGROV-1 = tested on: IGROV-1
SK-MEL-5 = tested on: SK-MEL-5
BT-549 = tested on: BT-549
MDA-MB-435 = tested on: MDA-MB-435
MDA-N = tested on: MDA-N

CCCCCCCCCCCCCCCCc1c(O)nc(NC#N)nc1C(=O)OC
GI50 (COLO 205): > 25 µM (inactive)
GI50 (DMS-114): > 25 µM (inactive)
GI50 (HOP-62): > 25 µM (inactive)
GI50 (HT-29): > 25 µM (inactive)
GI50 (NCI-H226): > 25 µM (inactive)
GI50 (NCI-H522): > 25 µM (inactive)
GI50 (OVCAR-5): > 25 µM (inactive)
GI50 (OVCAR-8): > 25 µM (inactive)
GI50 (SF-295): > 25 µM (inactive)
GI50 (SK-MEL-28): > 25 µM (inactive)
GI50 (SK-MEL-2): > 25 µM (inactive)
GI50 (SK-OV-3): > 25 µM (inactive)
GI50 (SNB-75): > 25 µM (inactive)
GI50 (TK-10): > 25 µM (inactive)
GI50 (U-251): > 25 µM (inactive)

CN/N=C(/Cc1occc(=O)c1O)C(=O)Nc1ccccc1C
GI50 (COLO 205): > 100 µM (inactive)
GI50 (DMS-114): > 100 µM (inactive)
GI50 (HOP-62): > 100 µM (inactive)
GI50 (HT-29): > 100 µM (inactive)
GI50 (IGROV-1): > 100 µM (inactive)
GI50 (NCI-H226): > 100 µM (inactive)
GI50 (NCI-H522): > 100 µM (inactive)
GI50 (OVCAR-5): > 100 µM (inactive)
GI50 (OVCAR-8): > 100 µM (inactive)
GI50 (SF-295): > 100 µM (inactive)
GI50 (SK-MEL-28): > 100 µM (inactive)
GI50 (SK-MEL-2): > 100 µM (inactive)
GI50 (SK-MEL-5): > 100 µM (inactive)
GI50 (SK-OV-3): > 100 µM (inactive)
GI50 (TK-10): > 100 µM (inactive)
GI50 (U-251): > 100 µM (inactive)

Nc1nc(N)c(/N=N/c2ccc(C(=O)O)c(O)c2)c(N)n1
GI50 (BT-549): > 100 µM (inactive)
GI50 (COLO 205): > 100 µM (inactive)
GI50 (HOP-62): > 100 µM (inactive)
GI50 (HT-29): > 100 µM (inactive)
GI50 (IGROV-1): > 100 µM (inactive)
GI50 (MDA-MB-435): > 100 µM (inactive)
GI50 (MDA-N): > 100 µM (inactive)
GI50 (NCI-H226): > 100 µM (inactive)
GI50 (NCI-H522): 26.8 µM (inactive)
GI50 (OVCAR-5): > 100 µM (inactive)
GI50 (OVCAR-8): > 100 µM (inactive)
GI50 (SF-295): > 100 µM (inactive)
GI50 (SK-MEL-28): > 100 µM (inactive)
GI50 (SK-MEL-2): > 100 µM (inactive)
GI50 (SK-MEL-5): > 100 µM (inactive)
GI50 (SK-OV-3): > 100 µM (inactive)
GI50 (SNB-75): > 100 µM (inactive)
GI50 (TK-10): > 100 µM (inactive)
GI50 (U-251): > 100 µM (inactive)

Cc1cc(=O)oc2cc(OC(=O)Nc3ccccc3)ccc12
GI50 (BT-549): 22.9 µM (inactive)
GI50 (COLO 205): 53.5 µM (inactive)
GI50 (HOP-62): > 100 µM (inactive)
GI50 (HT-29): > 100 µM (inactive)
GI50 (IGROV-1): 69.8 µM (inactive)
GI50 (MDA-MB-435): > 100 µM (inactive)
GI50 (MDA-N): > 100 µM (inactive)
GI50 (NCI-H226): 73.1 µM (inactive)
GI50 (NCI-H522): 53.1 µM (inactive)
GI50 (OVCAR-5): > 100 µM (inactive)
GI50 (OVCAR-8): 53.3 µM (inactive)
GI50 (SF-295): > 100 µM (inactive)
GI50 (SK-MEL-28): > 100 µM (inactive)
GI50 (SK-MEL-2): > 100 µM (inactive)
GI50 (SK-MEL-5): 59 µM (inactive)
GI50 (SK-OV-3): 70.6 µM (inactive)
GI50 (SNB-75): > 100 µM (inactive)
GI50 (TK-10): > 100 µM (inactive)
GI50 (U-251): 86.3 µM (inactive)

O=C(Cc1ccccc1)NCCc1ccc(O)c(O)c1
GI50 (BT-549): 82.8 µM (inactive)
GI50 (COLO 205): > 100 µM (inactive)
GI50 (HOP-62): > 100 µM (inactive)
GI50 (HT-29): > 100 µM (inactive)
GI50 (IGROV-1): 77.1 µM (inactive)
GI50 (MDA-MB-435): 17.9 µM (inactive)
GI50 (MDA-N): 17.4 µM (inactive)
GI50 (NCI-H226): > 100 µM (inactive)
GI50 (NCI-H522): 28.4 µM (inactive)
GI50 (OVCAR-5): > 100 µM (inactive)
GI50 (OVCAR-8): > 100 µM (inactive)
GI50 (SF-295): > 100 µM (inactive)
GI50 (SK-MEL-28): > 100 µM (inactive)
GI50 (SK-MEL-2): 24.8 µM (inactive)
GI50 (SK-MEL-5): > 100 µM (inactive)
GI50 (SK-OV-3): > 100 µM (inactive)
GI50 (SNB-75): > 100 µM (inactive)
GI50 (TK-10): > 100 µM (inactive)
GI50 (U-251): 78.7 µM (inactive)

COc1cc(N(C)C)c(OC)cc1/C=C\c1ccnc2ccccc12
GI50 (BT-549): 4.34 µM (inactive)
GI50 (COLO 205): 3.55 µM (inactive)
GI50 (HOP-62): 4.94 µM (inactive)
GI50 (HT-29): 3.1 µM (inactive)
GI50 (IGROV-1): 0.824 µM (active)
GI50 (MDA-MB-435): 1.75 µM (inactive)
GI50 (MDA-N): 1.71 µM (inactive)
GI50 (NCI-H226): 8.83 µM (inactive)
GI50 (NCI-H522): 4.38 µM (inactive)
GI50 (OVCAR-5): > 10 µM (inactive)
GI50 (OVCAR-8): 9.44 µM (inactive)
GI50 (SF-295): 2.86 µM (inactive)
GI50 (SK-MEL-28): 1.86 µM (inactive)
GI50 (SK-MEL-2): 2.66 µM (inactive)
GI50 (SK-MEL-5): 0.815 µM (active)
GI50 (SK-OV-3): > 10 µM (inactive)
GI50 (SNB-75): 2.57 µM (inactive)
GI50 (TK-10): 2.12 µM (inactive)
GI50 (U-251): 5.04 µM (inactive)

COc1cc([C@@H]2c3cc4c(cc3[C@@H](OC(=O)c3cccc(N)c3)C3COC(=O)[C@@H]32)OCO4)cc(OC)c1O (some centres undefined)
GI50 (COLO 205): 11.3 µM (inactive)
GI50 (DMS-114): 3.66 µM (inactive)
GI50 (HOP-62): 2.32 µM (inactive)
GI50 (HT-29): 3.13 µM (inactive)
GI50 (IGROV-1): 13.8 µM (inactive)
GI50 (NCI-H226): 1.15 µM (inactive)
GI50 (OVCAR-5): 17.9 µM (inactive)
GI50 (OVCAR-8): 8.05 µM (inactive)
GI50 (SF-295): 0.32 µM (active)
GI50 (SK-MEL-28): 0.91 µM (active)
GI50 (SK-MEL-2): 14.9 µM (inactive)
GI50 (SK-MEL-5): 0.536 µM (active)
GI50 (SK-OV-3): 11.5 µM (inactive)
GI50 (SNB-75): 5.36 µM (inactive)
GI50 (TK-10): 59.3 µM (inactive)
GI50 (U-251): 5.85 µM (inactive)

Cc1ccc(/N=N/c2c(C)nn(-c3ccccc3)c2C)c(Br)c1
GI50 (COLO 205): > 100 µM (inactive)
GI50 (DMS-114): > 100 µM (inactive)
GI50 (HOP-62): > 100 µM (inactive)
GI50 (HT-29): 76.9 µM (inactive)
GI50 (IGROV-1): > 100 µM (inactive)
GI50 (NCI-H226): > 100 µM (inactive)
GI50 (OVCAR-5): > 100 µM (inactive)
GI50 (OVCAR-8): > 100 µM (inactive)
GI50 (SF-295): > 100 µM (inactive)
GI50 (SK-MEL-28): > 100 µM (inactive)
GI50 (SK-MEL-2): > 100 µM (inactive)
GI50 (SK-MEL-5): 66.1 µM (inactive)
GI50 (SK-OV-3): > 100 µM (inactive)
GI50 (SNB-75): > 100 µM (inactive)
GI50 (TK-10): > 100 µM (inactive)
GI50 (U-251): 60.8 µM (inactive)
